The text below walks through data of patent US20060211676A1, “Crystalline anhydrous cefdinir and crystalline cefdinir hydrates” (priority 2004, published 2006).

The nature of this series: Dynamic Moisture Sorption/Desorption Gravimetric (DMSG) analysis. Type of series: physicochemical. The conditions noted are these: relative humidity from 50% to 90%. As for the experimental part: Dynamic Moisture Sorption/Desorption Gravimetric (DMSG) analysis was performed for the cefdinir lower hydrates. A vacuum moisture balance (MB 300G, VTI Corporation) was used to study the moisture sorption and desoprtion. Samples were dried at 50° C. under vacuum to constant weight. Relative humidity was increased to 90% in 10% increments. If the sample weight remained unchanged (i.e. changed by less than about 3 mg/15 min), the moisture content was recorded. The balance was calibrated before the experiment and the accuracy of the relative humidity measurement was verified with polyvinylpyrrolidone K90. […] Sharp steps, for example with relative humidity changes from 40% to 50%, occur when the crystal undergoes a phase change (i.e. a crystalline structure change). […] Increases in the relative humidity from 10% to almost 40%, results in the formation of crystalline iso-structural hydrates. The cefdinir iso-structural hydrates varied but maintained the same crystalline structure and PXRD patterns (FIG. 6). An increase in the relative humidity from 40% to 50% caused a crystalline structure change, and further increase of relative humidity from 50% to 90% caused cefdinir trihemihydrate (having a water content of about 14%) to form. […] The weight changes are expressed by percentage of water content and by the calculated molar content of water.

Regarding `C=CC1=C(C(=O)O)N2C(=O)[C@@H](NC(=O)/C(=N\O)c3csc(N)n3)[C@H]2SC1.C=CC1=C(C(=O)O)N2C(=O)[C@@H](NC(=O)/C(=N\O)c3csc(N)n3)[C@H]2SC1.O.O.O.O.O.O.O` [cefdinir trihemihydrate, crystalline(6R-(6α,7β(Z)))-7-(((2-amino-1,3-thiazol-4-yl)(hydroxyimino)acetyl)amino)-3-ethenyl-8-oxo-5-thia-1-azabicyclo[4.2.0]oct-2-ene-2-carboxylic acid.3.5H2O], the water content entry was “about 14%”.
